pIC50, pKi: −log10 of the molar value. Activity calls are given as the source filed them. The calls are words filed in the database; no cut-off is given here.
Assays:
[1] = molecular target: T1, Tyrosine-protein phosphatase non-receptor type 22 (Homo sapiens, UniProt Q9Y2R2)
T1 sequence (Q9Y2R2 whole entry): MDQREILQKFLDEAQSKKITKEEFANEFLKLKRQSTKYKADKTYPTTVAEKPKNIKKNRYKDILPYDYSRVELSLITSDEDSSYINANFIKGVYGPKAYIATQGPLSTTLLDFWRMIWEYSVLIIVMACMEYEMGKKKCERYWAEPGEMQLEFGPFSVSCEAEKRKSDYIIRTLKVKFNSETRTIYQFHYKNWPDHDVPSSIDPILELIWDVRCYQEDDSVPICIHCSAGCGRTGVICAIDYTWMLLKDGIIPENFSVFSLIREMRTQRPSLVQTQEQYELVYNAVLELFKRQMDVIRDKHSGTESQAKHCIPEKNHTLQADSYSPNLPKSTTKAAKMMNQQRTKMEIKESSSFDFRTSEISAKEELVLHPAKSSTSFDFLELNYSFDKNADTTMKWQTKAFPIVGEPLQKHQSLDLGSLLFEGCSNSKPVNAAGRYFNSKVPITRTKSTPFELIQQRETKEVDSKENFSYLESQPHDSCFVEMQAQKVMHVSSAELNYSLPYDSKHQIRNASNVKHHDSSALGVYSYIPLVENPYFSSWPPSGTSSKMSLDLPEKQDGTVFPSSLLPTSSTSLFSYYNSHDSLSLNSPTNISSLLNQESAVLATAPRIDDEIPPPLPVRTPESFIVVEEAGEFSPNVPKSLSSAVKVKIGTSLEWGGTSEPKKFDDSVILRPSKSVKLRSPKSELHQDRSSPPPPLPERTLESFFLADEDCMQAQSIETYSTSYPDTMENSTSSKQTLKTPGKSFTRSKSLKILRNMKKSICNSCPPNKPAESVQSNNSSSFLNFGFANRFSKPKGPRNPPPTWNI
Description: Inhibition of LYP expressed in Escherichia coli BL21 using pNPP substrate

[2] = molecular target: T2, Tyrosine-protein phosphatase non-receptor type 12 (Homo sapiens, UniProt Q05209)
T2 sequence (Q05209 whole entry): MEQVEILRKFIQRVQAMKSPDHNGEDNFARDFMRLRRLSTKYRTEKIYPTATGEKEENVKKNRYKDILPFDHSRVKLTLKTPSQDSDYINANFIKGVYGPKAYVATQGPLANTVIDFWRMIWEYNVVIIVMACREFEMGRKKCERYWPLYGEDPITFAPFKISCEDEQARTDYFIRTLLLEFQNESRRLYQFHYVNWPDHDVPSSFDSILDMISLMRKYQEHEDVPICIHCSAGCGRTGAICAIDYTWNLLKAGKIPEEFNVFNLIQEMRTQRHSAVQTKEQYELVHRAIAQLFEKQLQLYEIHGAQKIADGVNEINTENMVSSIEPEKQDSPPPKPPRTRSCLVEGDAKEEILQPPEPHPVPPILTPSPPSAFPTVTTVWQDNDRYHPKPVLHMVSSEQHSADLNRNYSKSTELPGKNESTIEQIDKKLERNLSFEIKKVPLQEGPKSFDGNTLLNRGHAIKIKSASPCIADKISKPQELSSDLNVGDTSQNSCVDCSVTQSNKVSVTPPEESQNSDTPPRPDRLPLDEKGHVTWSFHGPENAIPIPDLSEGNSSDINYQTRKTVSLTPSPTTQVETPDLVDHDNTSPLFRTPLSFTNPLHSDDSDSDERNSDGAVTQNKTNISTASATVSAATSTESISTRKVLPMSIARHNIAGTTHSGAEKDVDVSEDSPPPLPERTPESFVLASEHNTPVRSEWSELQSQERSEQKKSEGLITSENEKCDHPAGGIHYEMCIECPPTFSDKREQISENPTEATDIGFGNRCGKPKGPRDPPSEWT
Description: Inhibition of PTP-PEST expressed in Escherichia coli BL21 using pNPP substrate

[3] = molecular target: T3, Tyrosine-protein phosphatase non-receptor type 7 (Homo sapiens, UniProt P35236)
T3 sequence (P35236 whole entry): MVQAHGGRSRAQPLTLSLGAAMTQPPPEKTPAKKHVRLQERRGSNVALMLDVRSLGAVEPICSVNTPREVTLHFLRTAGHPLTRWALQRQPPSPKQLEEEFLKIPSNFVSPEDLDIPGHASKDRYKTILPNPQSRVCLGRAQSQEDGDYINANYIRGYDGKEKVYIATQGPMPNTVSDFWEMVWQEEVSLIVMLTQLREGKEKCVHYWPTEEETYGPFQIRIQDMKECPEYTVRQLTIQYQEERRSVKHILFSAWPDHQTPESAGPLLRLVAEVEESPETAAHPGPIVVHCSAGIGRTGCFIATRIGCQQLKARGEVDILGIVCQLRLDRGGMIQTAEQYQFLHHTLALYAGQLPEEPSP
Description: Inhibition of HePTP expressed in Escherichia coli BL21 using pNPP substrate

[4] = molecular target: T4, Low molecular weight phosphotyrosine protein phosphatase (Homo sapiens, UniProt P24666)
T4 sequence (P24666 whole entry): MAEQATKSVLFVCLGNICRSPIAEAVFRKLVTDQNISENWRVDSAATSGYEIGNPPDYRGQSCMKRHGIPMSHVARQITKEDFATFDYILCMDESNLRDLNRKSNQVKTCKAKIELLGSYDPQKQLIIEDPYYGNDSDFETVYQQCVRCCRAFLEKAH
Description: Inhibition of LMPTP-A expressed in Escherichia coli BL21 using pNPP substrate

[5] = molecular target: T5, Tyrosine-protein phosphatase non-receptor type 22 (Mus musculus) (UniProt P29352); test: Inhibition of LYP in anti-CD3 and antiCD28 antibody-stimulated C57BL/6 mouse CD4+ splenocytes assessed as increase in TCR signaling-stimulated CD69 expression at 100 uM incubated for 24 hrs (reference value: 29.2%); parameters: scale not given: the % may be the effect or the level left
T5 sequence (whole entry): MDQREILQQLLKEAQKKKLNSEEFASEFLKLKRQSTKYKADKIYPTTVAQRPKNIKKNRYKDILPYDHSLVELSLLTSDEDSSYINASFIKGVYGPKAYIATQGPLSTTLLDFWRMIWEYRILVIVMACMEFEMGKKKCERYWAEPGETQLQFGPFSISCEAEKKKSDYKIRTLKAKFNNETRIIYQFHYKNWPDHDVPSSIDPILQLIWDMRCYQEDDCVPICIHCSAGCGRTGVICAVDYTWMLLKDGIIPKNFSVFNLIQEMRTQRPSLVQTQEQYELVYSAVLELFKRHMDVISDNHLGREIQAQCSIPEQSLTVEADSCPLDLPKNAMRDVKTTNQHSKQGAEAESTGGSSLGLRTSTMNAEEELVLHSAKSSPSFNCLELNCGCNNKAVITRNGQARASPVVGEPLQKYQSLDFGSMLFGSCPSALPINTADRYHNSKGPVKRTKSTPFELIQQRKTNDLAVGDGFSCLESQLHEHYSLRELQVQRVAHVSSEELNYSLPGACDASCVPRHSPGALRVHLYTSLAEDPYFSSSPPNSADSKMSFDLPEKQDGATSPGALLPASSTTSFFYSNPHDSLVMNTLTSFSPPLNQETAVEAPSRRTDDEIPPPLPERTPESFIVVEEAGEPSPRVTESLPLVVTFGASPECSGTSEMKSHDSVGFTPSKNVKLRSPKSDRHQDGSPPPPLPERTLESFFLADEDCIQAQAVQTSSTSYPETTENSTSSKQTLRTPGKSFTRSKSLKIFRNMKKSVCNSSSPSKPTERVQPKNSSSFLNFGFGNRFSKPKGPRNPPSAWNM

[6] = molecular target: T5, Tyrosine-protein phosphatase non-receptor type 22 (Mus musculus); test: Inhibition of LYP in anti-CD3 and antiCD28 antibody-stimulated C57BL/6 mouse CD8+ splenocytes assessed as increase in TCR signaling-stimulated CD69 expression at 100 uM incubated for 24 hrs (reference value: 5.3%); parameters: scale not given: the % may be the effect or the level left
[7] = Inhibition of TCR signaling in anti-CD3 and anti-CD4 antibody stimulated mouse Ptpn22-/- T cells assessed as increase in Lck Y394 phosphorylation at 50 uM by Western blotting; settings: T-cell
[8] = molecular target: T5, Tyrosine-protein phosphatase non-receptor type 22 (Mus musculus); test: Inhibition of LYP in anti-CD3 and antiCD28 antibody-stimulated C57BL/6 mouse CD4+ splenocytes assessed as increase in TCR signaling-stimulated CD69 expression at 50 uM incubated for 24 hrs (reference value: 29.2%); parameters: scale not given: the % may be the effect or the level left
[9] = molecular target: T5, Tyrosine-protein phosphatase non-receptor type 22 (Mus musculus); test: Inhibition of LYP-mediated TCR signaling in anti-CD3 and anti-CD4 antibody stimulated mouse Ptpn22+/+ T cells assessed as increase in Lck Y394 phosphorylation at 50 uM by Western blotting; settings: T-cell
[10] = molecular target: T5, Tyrosine-protein phosphatase non-receptor type 22 (Mus musculus); test: Inhibition of LYP in anti-CD3 and antiCD28 antibody-stimulated C57BL/6 mouse CD8+ splenocytes assessed as increase in TCR signaling-stimulated CD69 expression at 50 uM incubated for 24 hrs (reference value: 5.3%); parameters: scale not given: the % may be the effect or the level left
[11] = molecular target: T1, Tyrosine-protein phosphatase non-receptor type 22; remark: listed apart in the source
Description: Inhibition of LYP expressed in Escherichia coli BL21 using increasing levels of ARLIED-NEpYTAREG substrate

[12] = molecular target: T1, Tyrosine-protein phosphatase non-receptor type 22; remark: listed apart in the source

Row | SMILES | pIC50 [1] | pIC50 [2] | pIC50 [3] | pIC50 [4] | other results
1 | Cc1cccc2cc(C#N)c(SCC(=O)Nc3cccc(Cl)c3)nc12 | 4.57 | 4.55 | 4.66 | < 4.05 | 
2 | COc1ccc(-n2ncc3c(SCC(=O)N4c5ccccc5CC4C)ncnc32)cc1 (centres undefined) |  | < 4.40 |  | < 4.05 | 
3 | Cc1ccc2[nH]c(=O)c(C(c3nnnn3C3CCCC3)N3CCC(C)CC3)cc2c1 (centres undefined) | 4.69 |  |  |  | 
4 | Cc1ccc2[nH]c(=O)c(C(c3nnnn3-c3ccccc3)N3CCCC4(CCCCC4)C3)cc2c1 (centres undefined) | 4.95 |  |  |  | 
5 | Cc1ccc2[nH]c(=O)c(C(c3nnnn3C3CCCC3)N3CCN(c4ccc(O)cc4)CC3)cc2c1 (centres undefined) | < 4.40 |  |  |  | 
6 | Cc1ccc2[nH]c(=O)c(C(c3nnnn3C3CCCC3)N3CCCC4(CCCCC4)C3)cc2c1 (centres undefined) |  |  |  |  | Activity [5]: 38.9%; Activity [6]: 13.7%; inhibition [7]: inactive; Activity [8]: 36.8%; inhibition [9]: Active; Activity [10]: 12.1%
7 | Cc1ccc2sc(NC(=O)c3sc4ccccc4c3Cl)nc2c1 | 4.53 | 4.85 | 5.10 | < 4.05 | 
8 | Cc1ccc2[nH]c(=O)c(C(c3nnnn3C3CCCC3)N3CCN(C)CC3)cc2c1 (centres undefined) | < 4.40 |  |  |  | 
9 | Cc1ccc2cc(C#N)c(SCC(=O)NC3CCCCC3)nc2c1C | 4.70 | 4.68 | 5.10 | 4.34 | 
10 | COc1ccc(N2CCN(C(c3cc4cc(C)ccc4[nH]c3=O)c3nnnn3C3CCCC3)CC2)cc1 (centres undefined) | 4.50 |  |  |  | 
11 | Cc1ccc2[nH]c(=O)c(C(c3nnnn3C3CCCC3)N3CCCCC3)cc2c1 (centres undefined) | 4.51 |  | < 4.12 |  | 
12 | Cc1ccc2cc(C#N)c(SCC(=O)Nc3ccc4c(c3)OCO4)nc2c1 | 4.63 | 4.44 | 4.92 | < 4.05 | 
13 | CCN1CCN(C(c2cc3cc(C)ccc3[nH]c2=O)c2nnnn2C2CCCC2)CC1 (centres undefined) | < 4.40 |  |  |  | 
14 | COc1ccccc1N1CCN(C(c2cc3cc(C)ccc3nc2O)c2nnnn2C2CCCC2)CC1 (centres undefined) | < 4.40 |  |  |  | 
15 | Cc1ccc2[nH]c(=O)c(C(c3nnnn3C3CCCC3)N3CCN(Cc4ccccc4)CC3)cc2c1 (centres undefined) | < 4.40 |  |  |  | 
16 | Cc1ccc2[nH]c(=O)c(C(c3nnnn3C3CCCC3)N(Cc3ccccc3)Cc3ccccc3)cc2c1 (centres undefined) | 4.88 |  |  |  | 
17 | Cc1ccc2[nH]c(=O)c(C(c3nnnn3C(C)C)N3CCCC4(CCCCC4)C3)cc2c1 (centres undefined) | 4.67 |  |  |  | 
18 | CCOc1ccc(NC(=O)CSc2nc3c(C)cc(C)cc3cc2C#N)cc1 | 4.55 | 4.80 | 4.80 | < 4.05 | 
19 | Cc1ccc2[nH]c(=O)c(C(c3nnnn3C3CCCC3)N3CCN(c4ccc(F)cc4)CC3)cc2c1 (centres undefined) | 4.51 |  |  |  | 
20 | Cc1ccc2[nH]c(=O)c(C(c3nnnn3C3CCCC3)N3CCN(c4ccccc4)CC3)cc2c1 (centres undefined) | 4.51 |  |  |  | 
21 | Cc1ccc2[nH]c(=O)c(C(c3nnnn3C3CCCC3)N3CCN(C(c4ccccc4)c4ccccc4)CC3)cc2c1 (centres undefined) |  |  |  |  | pKi [11]: 4.96; pKi [12]: 4.67
22 | Cc1ccc2[nH]c(=O)c(C(c3nnnn3C3CCCC3)N3CCN(C4CCCCC4)CC3)cc2c1 (centres undefined) | < 4.40 |  |  |  | 
23 | Cc1ccc(NC(=O)CSc2nc3c(C)c(C)ccc3cc2C#N)cc1C | 4.58 | 4.56 | 4.70 | 4.27 | 
24 | COc1ccc2cc(C#N)c(SCC(=O)Nc3cccc(C)c3C)nc2c1 | 4.52 | 4.74 | 4.82 | 4.22 | 
25 | Cc1ccc2[nH]c(=O)c(C(c3nnnn3C3CCCC3)N3CCN(c4nc5ccccc5s4)CC3)cc2c1 (centres undefined) | 4.52 |  |  |  | 
